The source of these data is ChEMBL document CHEMBL5608217, “New potent EV-A71 antivirals targeting capsid” (Eur J Med Chem, 2024).

SMILES strings stand for the structures. Activity calls are given as the source filed them. The calls are words filed in the database; no cut-off is given here. Bounds are passed on as bounds.

Data set [1] is described as follows: Cytotoxicity against human MRC5 cells. It counts as toxicity, cell-based.
A short description of data set [2]: Selectivity index, ratio of CC50 for cytotoxicity against human MRC5 cells to EC50 for antiviral activity against Enterovirus A71 infected in human MRC5 cells. It counts as toxicity, cell-based. As to conditions: read-out: Ratio CC50/EC50.
Data set [3] is described as follows: Cytotoxicity against Chinese hamster CHO-K1 cells incubated for 24 hrs by neutral red dye uptake assay. Type of data set: toxicity, cell-based, Cricetulus griseus.
Data set [4] in a line: Cytotoxicity against human RD cells. Type of data set: toxicity, cell-based.
Data set [5] concerns Enterovirus A71. Kind of data set: Antiviral activity against Enterovirus A71 infected in human MRC5 cells assessed as reduction in viral replication incubated for 72 hrs by RT-qPCR analysis. It counts as functional, organism-based. As to conditions: Enterovirus A, MRC5, 72 h.
A short description of data set [6]: Genotoxicity in Chinese hamster CHO-K1 cells assessed as increase in micronucleated cell rate at […] incubated for 3 hrs in absence of Sprague-Dawley rat liver S9 fraction by Giemsa staining based micronucleus assay. Type of data set: toxicity, Cricetulus griseus. The note with it: cho-k1, 3 h, dose lower 1 g/L.
A short description of data set [7]: Genotoxicity in Chinese hamster CHO-K1 cells assessed as increase in micronucleated cell rate at […] incubated for 3 hrs in presence of Sprague-Dawley rat liver S9 fraction by Giemsa staining based micronucleus assay. It counts as toxicity, subcellular, Cricetulus griseus. As to conditions: s9, 3 h, dose lower 1 g/L.
Data set [8] relates to Enterovirus A71. The experiment in a line: Antiviral activity against Enterovirus A71 infected in human RD cells assessed as reduction in viral replication incubated for 72 hrs by RT-qPCR analysis. The note with it: Enterovirus A. Type of data set: functional, organism-based.
Data set [9] in a line: Selectivity index, ratio of CC50 for cytotoxicity against human RD cells to EC50 for antiviral activity against Enterovirus A71 infected in human RD cells. Type of data set: toxicity, cell-based. The note with it: read-out: Ratio CC50/EC50.
For data set [10], the system named is Enterovirus A71. The experiment in a line: Antiviral activity against Enterovirus A71 infected in human RD cells assessed as inhibition of viral replication at 0.31 to 40 uM incubated for 72 hrs by RT-qPCR analysis relative to control. It counts as functional. As to conditions: dose 0.31-40 µM.
Data set [11] relates to Enterovirus A71. The experiment in a line: Antiviral activity against Enterovirus A71 infected in human MRC5 cells assessed as inhibition of viral replication at 0.31 to 40 uM incubated for 72 hrs by RT-qPCR analysis relative to control. Type of data set: functional. The note with it: dose 0.31-40 µM.
The subject of a further data set is rhinovirus B14. The experiment in a line: Antiviral activity against Human rhinovirus B14 infected in human HeLa-RH cells assessed as inhibition of virus induced cytopathic effect incubated for 3 days by MTS assay. Type of data set: functional, organism-based. The note with it: Rhinovirus B, 72 h.

On to `COc1ccc2oc(SCc3ccc(-n4cncn4)cc3)nc2c1`, for which the CC50 is over 20 µM in data set [1] and 22.1 µM in [4]. In addition, the selectivity ratio in data set [2] is under 1. The same compound had a CC50 at 24 h in [3] of 32.1 µM. Further, the EC50 turned out to be 1.67 µM in the data set on Enterovirus A71 [5] and 28.5 µM in the data set with Enterovirus A71 [8]. Further, the Activity entry in [6] and in data set [7] was “Non-Toxic” in each case.

In the case of `CCOc1ccc(-c2ccc(SCc3ccc(-n4cncn4)cc3)nc2)cc1`, in the data set with Enterovirus A71 [5], the EC50 is over 20 µM.

`OCc1ccc(-c2ccc(SCc3ccc(-n4cncn4)cc3)nc2)cc1`: the figures for the half-maximal cytotoxic concentration (CC50) in data set [1] and in data set [4] were over 20 µM and over 40 µM, respectively. Moreover, the selectivity ratio in data set [2] is over 68; in [9], over 24. Moreover, the midpoint of cytotoxicity in data set [3], the CC50 at 24 h, lay at 41.3 µM. Also, the EC50 in the data set with Enterovirus A71 [5] came to 0.29 µM; in the data set on Enterovirus A71 [8], 1.66 µM. For the same compound, the Activity result in [6] and in data set [7] was “Non-Toxic” throughout. Moreover, the inhibition entry with Enterovirus A71 [10] and in the data set with Enterovirus A71 [11] was “Active” each time.

In the case of `COc1cc(C[C@H](O)c2ccc(C#N)cc2)c([N+](=O)[O-])cc1OC`, the 50% effective concentration (EC50) with rhinovirus B14 was 2 µM.

For `c1ccc2nc(SCc3ccc(-n4cncn4)cc3)cnc2c1`, the half-maximal cytotoxic concentration (CC50) in [1] and in [4] was over 40 µM each time. For the same compound, the EC50 is 38.1 µM in the data set on Enterovirus A71 [5] and 6.8 µM in the data set on Enterovirus A71 [8].

Turning to `c1ccc2[nH]c(SCc3ccc(-n4cncn4)cc3)nc2c1`, in the data set on Enterovirus A71 [5], the EC50 was over 20 µM.

Regarding `CN(C)c1ccc(-c2ccc(SCc3ccc(-n4cncn4)cc3)cc2)cc1`, the EC50 in the data set on Enterovirus A71 [5] was over 20 µM.

`c1ccc2sc(SCc3ccc(-n4cncn4)cc3)nc2c1`: in the data set on Enterovirus A71 [5], the EC50 is over 20 µM.

With `OCc1ccc(-c2ccc(SCc3ccc(-c4ccc(N5CCOCC5)cc4)cc3)nc2)cc1`, the CC50 is over 20 µM in [1] and over 40 µM in data set [4]. Moreover, the results for the selectivity ratio in [2] and in data set [9] were over 3.1 and over 2, respectively. Besides, the cytotoxic concentration (CC50) at 24 h in data set [3] worked out at 45.8 µM. The 50% effective concentration (EC50) in the data set on Enterovirus A71 [5] was found to be 6.38 µM; with Enterovirus A71 [8] it was 19.7 µM. Further, the Activity entry in [6] and in data set [7] was “Non-Toxic” each time.

As to `Fc1ccc(-c2ccc(SCc3ccc(-n4cncn4)cc3)cc2)cc1C(F)(F)F`, the 50% effective concentration (EC50) in the data set with Enterovirus A71 [5] is over 20 µM.

With `Cn1nccc1-c1ccc(SCc2ccc(-n3cncn3)cc2)cc1`, the CC50 was over 20 µM in data set [1] and over 40 µM in [4]. Besides, the selectivity ratio in data set [2] was over 35; in data set [9], over 9. For the same compound, in data set [3], the cytotoxic concentration (CC50) at 24 h was found to be 44.8 µM. Moreover, the values for the EC50 in the data set on Enterovirus A71 [5] and with Enterovirus A71 [8] were 0.57 µM and 4.38 µM, respectively. Moreover, the Activity entry in data set [6] and in [7] was “Non-Toxic” in each case. For the same compound, the “inhibition (INH)” value in the data set with Enterovirus A71 [10] and in the data set on Enterovirus A71 [11] was 100% in each case.

Turning to `c1ncn(-c2ccc(CSc3ccc(-c4ccc(N5CCOCC5)cc4)cc3)cc2)n1`, the EC50 in the data set on Enterovirus A71 [5] was over 20 µM.

Turning to `Cn1nccc1-c1ccc(SCc2ccc(-n3cncn3)cc2)nc1`, the EC50 in the data set with Enterovirus A71 [5] is over 20 µM.

As for `CCOc1noc2cc(OCCC3CCN(c4ccc(C)nn4)CC3)ccc12` [VAPENDAVIR], the CC50 in data set [1] was over 20 µM; in data set [4] it was over 63 µM.

As for `c1ccc2oc(SCc3ccc(-n4cncn4)cc3)nc2c1`, the concentration for a half-maximal effect (EC50) in the data set on Enterovirus A71 [5] is over 20 µM.

For the compound `Cc1cccc2c1[nH]c1nc(SCc3ccc(-n4cncn4)cc3)nnc12`, the CC50 in [1] worked out at 15.6 µM; in data set [4] it was 8.89 µM. For the same compound, the figures for the EC50 with Enterovirus A71 [5] and with Enterovirus A71 [8] were 26.5 µM and 4.65 µM, respectively.

On to `CCOc1ccc(-c2ccc(CSc3ccc(-c4ccc(CO)cc4)cc3)cc2)cc1`, for which, in the data set with Enterovirus A71 [5], the 50% effective concentration (EC50) is over 20 µM.

For the compound `OCc1ccc(-c2ccc(SCc3ccc(-c4ccc(O)cc4)cc3)nc2)cc1`, the EC50 in the data set with Enterovirus A71 [5] is over 20 µM.

Regarding `CN1CCC(c2ccc(-c3ccc(CSc4ccc(-c5ccc(CO)cc5)cn4)cc3)cc2)CC1`, the 50% effective concentration (EC50) with Enterovirus A71 [5] was over 20 µM.

For the compound `O=Cc1ccc(-c2ccc(SCc3ccc(-n4cncn4)cc3)nc2)cc1`, the EC50 with Enterovirus A71 [5] was over 20 µM.

`CCOc1ccc(-c2ccc(SCc3ccc(-n4cncn4)cc3)cc2)cc1`: in the data set on Enterovirus A71 [5], the EC50 was over 20 µM.

As for `OCc1ccc(-c2ccc(SCc3ccc(-c4ccc(C(F)(F)F)cc4)cc3)nc2)cc1`, the concentration for a half-maximal effect (EC50) in the data set with Enterovirus A71 [5] was over 20 µM.

As to `COc1ccc2oc(SCc3ccc(-c4ccc(N(C)C)cc4)cc3)nc2c1`, the EC50 in the data set on Enterovirus A71 [5] is over 20 µM.

As to `FC(F)(F)c1ccc(-c2ccc(SCc3ccc(-n4cncn4)cc3)cc2)cc1`, the EC50 in the data set with Enterovirus A71 [5] is over 20 µM.

For the compound `Clc1ccc2oc(SCc3ccc(-n4cncn4)cc3)nc2c1`, the concentration giving a half-maximal response (EC50) in the data set on Enterovirus A71 [5] was over 20 µM.

For `COc1ccc2[nH]c(SCc3ccc(-n4cncn4)cc3)nc2c1`, the CC50 in data set [1] and in data set [4] was over 40 µM throughout. The half-maximal effective concentration (EC50) in the data set with Enterovirus A71 [5] and in the data set on Enterovirus A71 [8] was over 40 µM in each case.

With `c1ccc2nc(SCc3ccc(-n4cncn4)cc3)ccc2c1`, the CC50 in data set [1] and in data set [4] was over 40 µM each time. Moreover, the 50% effective concentration (EC50) in the data set with Enterovirus A71 [5] was 39.7 µM; with Enterovirus A71 [8], over 40 µM.

As to `Cc1ccc2oc(SCc3ccc(-n4cncn4)cc3)nc2c1`, in the data set with Enterovirus A71 [5], the half-maximal effective concentration (EC50) was over 20 µM.

As for `CN(C)c1ccc(-c2ccc(CSc3ccc(-c4ccc(CO)cc4)cn3)cc2)cc1`, the concentration giving a half-maximal response (EC50) in the data set with Enterovirus A71 [5] is over 20 µM.

Take `CCOc1ccc(-c2ccc(CSc3ccc(-c4ccc(CO)cc4)cn3)cc2)cc1`: the 50% effective concentration (EC50) in the data set on Enterovirus A71 [5] is over 20 µM.

In the case of `CCOc1ccc(-c2ccc(CSc3nc4cc(OC)ccc4o3)cc2)cc1`, the EC50 with Enterovirus A71 [5] was over 20 µM.

Regarding `Cc1ccc(-c2ccc(SCc3ccc(-n4cncn4)cc3)cc2)cc1`, in the data set with Enterovirus A71 [5], the EC50 was over 20 µM.

Regarding `FC(F)(F)c1ccc2c(SCc3ccc(-n4cncn4)cc3)ccnc2c1`, the half-maximal cytotoxic concentration (CC50) in [1] is over 40 µM; in [4] it was 20.8 µM. In addition, the results for the 50% effective concentration (EC50) with Enterovirus A71 [5] and with Enterovirus A71 [8] were 28 µM and 12.7 µM, respectively.

On to `OCc1ccc(-c2ccc(SCc3ccc(-n4cncn4)cc3)cc2)cc1`, for which the EC50 in the data set with Enterovirus A71 [5] is over 20 µM.
